# Reference: patent US20120027720A1, “PEPTIDE CONJUGATES” (priority 2008, published 2012)
# *1 amine or outer side, *2 acyl side, *3 side chain or, on linkers, in order; H or OH if unused. Where a SMILES comes first, the peptide text is derived from it. Where no end group is shown, it is not given here. [ ]: non-standard residue; d: D form. Cys(Bzl) = L-S-benzyl-cysteine, O=C([C@H](CSCc1ccccc1)N[*:1])[*:2]; Cha = N[C@@H](CC1CCCCC1)C(=O)O; AllylGly = C=CC[C@H](N)C(=O)O; Dap = NC[C@H](N)C(=O)O
# Tests used:
# CaCo2 monolayers [1] = experiment: Trans Epithelial Electric Resistance (TEER) across cell monolayer; type: cell-based; parameters: key to Reduced TEER: + indicates an enhancement of the permeability of the tight junctions were observed; − indicates no enhancement of permeability was observed; details: for Reduced TEER: Caco-2 monolayer
# Description: (§1) Agonists of tight junctions can be identified by their ability to enhance the flux of compounds (e.g. ions, Lucifer Yellow) through a cell monolayer that comprises tight junctions; or by their ability to reduce TEER across a cell monolayer that comprises tight junctions. Treatment of CaCo2 monolayers with peptide FCIGRL (SEQ ID NO: 1) led to a 51-fold enhancement of Lucifer Yellow permeability through CaCo2 monolayers compared to vehicle alone. Treatment of CaCo2 monolayers with peptide FCIGRL led to a 16-fold decrease in TEER across CaCo2 monolayers compared to vehicle alone.
# (§2) Determination of TEER and Lucifer Yellow Flux
# (§3) Prepare Modified Hank's Balanced Salt Solution (MHBSS) by obtaining 1 L bottle of HBSS removing 10 ml of HBSS and replacing it with 10 ml HEPES buffer pH 7.0. Adjust pH to 7.4±0.1 using concentrated NaOH (10N).
# (§4) Remove Caco-2 cells from incubator, grown on 12-well, […], polycarbonate Transwell® filters (Corning) and record passage#, date cells seeded and age in days.
# (§5) Aspirate cell culture medium from both the apical (AP) and basolateral (BL) compartments, replacing with 0.5 ml and 1.5 ml of MHBSS, respectively. Incubate cells at 37° C. for 30 minutes.
# Using the MilliCell®-ERS instrument (Millipore), measure and record the transepithelial electrical resistance (TEER) across each filter and record.
# (§6) Aspirate solution from the apical compartment of each filter (n=3 per condition) and replace with 0.5 ml of control and test solutions containing Lucifer Yellow and test compound if appropriate.
# (§7) Place all plates into incubator set at 37° C. (±0.2), 50 RPM (±5) for a total of 180 minutes.
# At t=30, 60, 120 and 180 minutes, measure and record the transepithelial electrical resistance (TEER) across each filter using the MilliCell-ERS instrument.
# (§8) Cells: Caco-2 cells passage 40-60 grown on Transwell® plates for 21-28 days
# (§9) Culture Medium: DMEM supplemented with 10% fetal bovine serum, 1% NEAA, 1% Penn/Strep
# (§10) Buffers: Hank's Balanced Salt Solution (HBSS) without calcium and magnesium
# (§11) Flasks: 100×20 mm Tissue culture dish Falcon.
# (§12) Plates: 12 well polycarbonate Transwell® filters; 0.3 uM pore size
# CaCo2 monolayers [2] = experiment: Epithelial flux of Lucifer Yellow through cell monolayer; type: cell-based; parameters: key to Enhanced LY permeability: + indicates an enhancement of the permeability of the tight junctions were observed; − indicates no enhancement of permeability was observed; details: for Enhanced LY permeability: Lucifer Yellow flux, Caco-2 monolayer
# Description: as §1, §2, §3, §4, §5, §6, §7
# At t=60, 120 and 180 minutes remove 100 μl from each basolateral compartment and place it in a 96-well plate for Lucifer Yellow analysis, replace with 100 μl of MHBSS.
# Make a Lucifer Yellow standard curve with the following dilutions (7500 μM, 3750 μM, 750 μM, 375 μM, 75 μM, 37.5 μM, 7.5 μM, 3.75 μM, 0.75 μM) and pipette […] of each into a 96-well plate except for the first three standards mentioned above which require a 1:10 dilutions prior to transferring to the 96-well plate.
# Harvest the remaining start solutions and what is left in each apical compartment into 1.5 ml vials. Freeze at −20° C. for future analysis.
# Analyze each 96-well plate in a Tecan Spectra Fluor Plus using Magellan at 485 and 535 nm.
# as §8, §9, §10, §11, §12
Compound,Reduced TEER (CaCo2 monolayers [1]),Enhanced LY permeability (CaCo2 monolayers [2]),decrease in TEER across CaCo2 monolayers (CaCo2 monolayers [1]; compared to vehicle alone) [fold],enhancement of Lucifer Yellow permeability through CaCo2 monolayers (CaCo2 monolayers [2]; compared to vehicle alone) [fold]
78 (Ac-ACIGRA; not fully specified; printed as Ac-Ala-Cys-Ile-Gly-Arg-Ala) [compound 78],−,+,,
205 (F[AllylGly]TGRL-NH2; N-terminus assumed; SMILES C=CC[C@H](NC(=O)[C@@H](N)Cc1ccccc1)C(=O)N[C@H](C(=O)NCC(=O)N[C@@H](CCCNC(=N)N)C(=O)N[C@@H](CC(C)C)C(N)=O)[C@@H](C)O) [compound 205],−,−,,
37 ([dL][dR]GICF; not fully specified; printed as D-Leu-D-Arg-Gly-Ile-Cys-Phe) [compound 37],−,−,,
101 (H-FCIGR[Cha]-OH; SMILES CC[C@H](C)[C@H](NC(=O)[C@H](CS)NC(=O)[C@@H](N)Cc1ccccc1)C(=O)NCC(=O)N[C@@H](CCCNC(=N)N)C(=O)N[C@@H](CC1CCCCC1)C(=O)O) [compound 101],+,+,,
"152 (F[Cys(Bzl)]IGRL; also: peptide conjugate, Xaa: 'may be' L-S-benzyl-cysteine) [compound 152]",−,−,,
202 (I[AllylGly]IGRL-NH2; N-terminus assumed; SMILES C=CC[C@H](NC(=O)[C@@H](N)[C@@H](C)CC)C(=O)N[C@H](C(=O)NCC(=O)N[C@@H](CCCNC(=N)N)C(=O)N[C@@H](CC(C)C)C(N)=O)[C@@H](C)CC) [compound 202],−,−,,
191 (E[AllylGly]IGRL-NH2; N-terminus assumed; SMILES C=CC[C@H](NC(=O)[C@@H](N)CCC(=O)O)C(=O)N[C@H](C(=O)NCC(=O)N[C@@H](CCCNC(=N)N)C(=O)N[C@@H](CC(C)C)C(N)=O)[C@@H](C)CC) [compound 191],−,−,,
165 (F[dL]IGRL-NH2; also: peptide conjugate) [compound 165],−,−,,
183 (F[AllylGly]IGRL-OH; N-terminus assumed; SMILES C=CC[C@H](NC(=O)[C@@H](N)Cc1ccccc1)C(=O)N[C@H](C(=O)NCC(=O)N[C@@H](CCCNC(=N)N)C(=O)N[C@@H](CC(C)C)C(=O)O)[C@@H](C)CC) [compound 183],+,+,,
196 (W[AllylGly]IGRL-NH2; N-terminus assumed; SMILES C=CC[C@H](NC(=O)[C@@H](N)Cc1c[nH]c2ccccc12)C(=O)N[C@H](C(=O)NCC(=O)N[C@@H](CCCNC(=N)N)C(=O)N[C@@H](CC(C)C)C(N)=O)[C@@H](C)CC) [compound 196],−,+,,
129 (FQIGRL; also: peptide conjugate) [compound 129],−,−,,
160 (F[Dap]IGRL; not fully specified; printed as Phe-Dpr-Ile-Gly-Arg-Leu; also: peptide conjugate) [compound 160],+,+,,
38 ([dL][dR]GIC[dF]; not fully specified) [compound 38],−,−,,
209 (F[AllylGly]VGRL-NH2; N-terminus assumed; SMILES C=CC[C@H](NC(=O)[C@@H](N)Cc1ccccc1)C(=O)N[C@H](C(=O)NCC(=O)N[C@@H](CCCNC(=N)N)C(=O)N[C@@H](CC(C)C)C(N)=O)C(C)C) [compound 209],−,−,,
"CC[C@H](C)[C@H](NC(=O)[C@H](CS)NC(=O)[C@@H](N)Cc1ccccc1)C(=O)NCC(=O)N[C@@H](CCCNC(=N)N)C(=O)N[C@@H](CC(C)C)C(=O)O [SEQ ID NO: 1, Phe-Cys-Ile-Gly-Arg-Leu] (H-FCIGRL-OH; N-terminus and C-terminus assumed)",,,16,51
